Experimental data published in PubChem BioAssay (NCI).
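Values below derive from 48-hour exposures of cells grown in 96-well plates, with endpoints linearly interpolated between the two concentrations bracketing the appropriate inhibition level. The concentration for full growth arrest is given as TGI.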

Experiments:
Assay in all cases: growth of human tumour cells (NCI), 48 h
COLO 205 colon = test system: COLO 205 colon
DU-145 prostate = test system: DU-145 prostate
HCC-2998 colon = test system: HCC-2998 colon
HOP-62 NSCLC = test system: HOP-62 NSCLC
HOP-92 NSCLC = test system: HOP-92 NSCLC
KM12 colon = test system: KM12 colon
MDA-MB-231 breast = test system: MDA-MB-231 breast
MDA-MB-435 = test system: MDA-MB-435
NCI-H226 lung = test system: NCI-H226 lung
OVCAR-8 ovarian = test system: OVCAR-8 ovarian
PC-3 prostate = test system: PC-3 prostate
RXF 393 renal = test system: RXF 393 renal
SNB-19 CNS = test system: SNB-19 CNS
T-47D breast = test system: T-47D breast
U251 CNS = test system: U251 CNS
UACC-257 melanoma = test system: UACC-257 melanoma
UO-31 renal = test system: UO-31 renal
SK-MEL-2 melanoma = test system: SK-MEL-2 melanoma
SR leukemia = test system: SR leukemia

## COc1ccc(C(=O)Oc2c(C#N)sc3c2c(=O)n(-c2ccccc2)c(=S)n3-c2ccccc2)cc1
COLO 205 colon
  TGI: 80.4 µM
DU-145 prostate
  TGI: > 100 µM
HCC-2998 colon
  TGI: 84.8 µM
HOP-62 NSCLC
  TGI: 73.9 µM
HOP-92 NSCLC
  TGI: 67.5 µM
KM12 colon
  TGI: 54.6 µM
MDA-MB-231 breast
  TGI: > 100 µM
MDA-MB-435
  TGI: 60.7 µM
NCI-H226 lung
  TGI: 57 µM
OVCAR-8 ovarian
  TGI: > 100 µM
PC-3 prostate
  TGI: 98.7 µM
RXF 393 renal
  TGI: 53.7 µM
SNB-19 CNS
  TGI: > 100 µM
T-47D breast
  TGI: > 100 µM
U251 CNS
  TGI: > 100 µM
UACC-257 melanoma
  TGI: > 100 µM
UO-31 renal
  TGI: 3.94 µM

## O=c1ccc2ccccc2c2ccccc12
COLO 205 colon
  TGI: 18.3 µM
HCC-2998 colon
  TGI: 21.4 µM
HOP-62 NSCLC
  TGI: 11.2 µM
KM12 colon
  TGI: 5.76 µM
NCI-H226 lung
  TGI: 15.1 µM
OVCAR-8 ovarian
  TGI: 4.61 µM
SK-MEL-2 melanoma
  TGI: 16.2 µM
SNB-19 CNS
  TGI: 8.73 µM
SR leukemia
  TGI: 4.66 µM
U251 CNS
  TGI: 4.93 µM
UACC-257 melanoma
  TGI: 16.6 µM
UO-31 renal
  TGI: 13.8 µM

## CC1CC(N2CCOCC2)=Nc2ccccc2N1Cc1ccccc1 (configuration not stated)
COLO 205 colon
  TGI: > 100 µM
DU-145 prostate
  TGI: > 100 µM
HOP-62 NSCLC
  TGI: > 100 µM
KM12 colon
  TGI: > 100 µM
MDA-MB-231 breast
  TGI: > 100 µM
MDA-MB-435
  TGI: > 100 µM
NCI-H226 lung
  TGI: > 100 µM
OVCAR-8 ovarian
  TGI: > 100 µM
PC-3 prostate
  TGI: > 100 µM
RXF 393 renal
  TGI: 63.4 µM
SK-MEL-2 melanoma
  TGI: > 100 µM
SNB-19 CNS
  TGI: > 100 µM
U251 CNS
  TGI: > 100 µM
UACC-257 melanoma
  TGI: > 100 µM
UO-31 renal
  TGI: > 100 µM

## Cn1nc(-c2ccccc2)c(C(=O)/C=C/c2ccc(Cl)cc2)c(N2CCOCC2)c1=O
COLO 205 colon
  TGI: 3.79 µM
HOP-62 NSCLC
  TGI: 33.7 µM
HOP-92 NSCLC
  TGI: 9.36 µM
OVCAR-8 ovarian
  TGI: 26.2 µM
RXF 393 renal
  TGI: 6.79 µM
SNB-19 CNS
  TGI: 29.3 µM
U251 CNS
  TGI: 12.8 µM
UO-31 renal
  TGI: 21.7 µM

## Cc1ccc(NC(=O)/C(C#N)=C/c2ccccc2)c(C)c1
COLO 205 colon
  TGI: > 100 µM
HCC-2998 colon
  TGI: > 100 µM
HOP-62 NSCLC
  TGI: > 100 µM
HOP-92 NSCLC
  TGI: > 100 µM
KM12 colon
  TGI: > 100 µM
NCI-H226 lung
  TGI: > 100 µM
OVCAR-8 ovarian
  TGI: > 100 µM
RXF 393 renal
  TGI: > 100 µM
SK-MEL-2 melanoma
  TGI: > 100 µM
SNB-19 CNS
  TGI: > 100 µM
SR leukemia
  TGI: > 100 µM
U251 CNS
  TGI: > 100 µM
UACC-257 melanoma
  TGI: > 100 µM
UO-31 renal
  TGI: > 100 µM

## O=C(CC(=O)c1ccccc1)C(=O)Nc1ccc(Cl)cc1
COLO 205 colon
  TGI: > 66.1 µM
HCC-2998 colon
  TGI: > 100 µM
HOP-62 NSCLC
  TGI: > 100 µM
HOP-92 NSCLC
  TGI: > 100 µM
KM12 colon
  TGI: > 100 µM
NCI-H226 lung
  TGI: > 100 µM
OVCAR-8 ovarian
  TGI: > 100 µM
RXF 393 renal
  TGI: > 100 µM
SK-MEL-2 melanoma
  TGI: > 100 µM
SNB-19 CNS
  TGI: > 100 µM
SR leukemia
  TGI: > 100 µM
U251 CNS
  TGI: > 100 µM
UACC-257 melanoma
  TGI: > 100 µM
UO-31 renal
  TGI: > 100 µM

## COC(=O)CCC(NC(=S)N/N=C(\C)c1cnccn1)C(=O)OC (configuration not stated)
COLO 205 colon
  TGI: > 100 µM
HCC-2998 colon
  TGI: > 100 µM
HOP-62 NSCLC
  TGI: > 100 µM
HOP-92 NSCLC
  TGI: > 100 µM
KM12 colon
  TGI: > 100 µM
NCI-H226 lung
  TGI: > 100 µM
OVCAR-8 ovarian
  TGI: > 100 µM
RXF 393 renal
  TGI: > 100 µM
SK-MEL-2 melanoma
  TGI: > 100 µM
SNB-19 CNS
  TGI: > 100 µM
SR leukemia
  TGI: > 100 µM
U251 CNS
  TGI: > 100 µM
UACC-257 melanoma
  TGI: > 100 µM
UO-31 renal
  TGI: > 100 µM

## CC(C)OC(=O)C1Cc2c([nH]c3ccccc23)C(c2ccccc2)N1 (configuration not stated)
COLO 205 colon
  TGI: > 100 µM
HCC-2998 colon
  TGI: > 100 µM
HOP-62 NSCLC
  TGI: 69.9 µM
HOP-92 NSCLC
  TGI: > 100 µM
KM12 colon
  TGI: > 100 µM
NCI-H226 lung
  TGI: > 100 µM
OVCAR-8 ovarian
  TGI: > 100 µM
RXF 393 renal
  TGI: 98.3 µM
SK-MEL-2 melanoma
  TGI: 41.2 µM
SNB-19 CNS
  TGI: > 100 µM
U251 CNS
  TGI: > 100 µM
UACC-257 melanoma
  TGI: > 100 µM
UO-31 renal
  TGI: 73.9 µM
